In patent US9221792B2, “N-(4-(azetidine-1-carbonyl) phenyl)-(hetero-) arylsulfonamide derivatives as pyruvate kinase M2 (PMK2) modulators” (AGIOS PHARMACEUTICALS, INC, priority 2010, dated 2015) one finds AC50 data, which are given here for 48 compounds.

Molecules are shown by their SMILES.

The target of one assay is PKM2 (Homo sapiens, UniProt P14618). Briefly: PKM2 Assay (activation, LDH-coupled NADH absorbance at 340 nm). The class given is biochemical.
Sequence of PKM2 (P14618 whole entry): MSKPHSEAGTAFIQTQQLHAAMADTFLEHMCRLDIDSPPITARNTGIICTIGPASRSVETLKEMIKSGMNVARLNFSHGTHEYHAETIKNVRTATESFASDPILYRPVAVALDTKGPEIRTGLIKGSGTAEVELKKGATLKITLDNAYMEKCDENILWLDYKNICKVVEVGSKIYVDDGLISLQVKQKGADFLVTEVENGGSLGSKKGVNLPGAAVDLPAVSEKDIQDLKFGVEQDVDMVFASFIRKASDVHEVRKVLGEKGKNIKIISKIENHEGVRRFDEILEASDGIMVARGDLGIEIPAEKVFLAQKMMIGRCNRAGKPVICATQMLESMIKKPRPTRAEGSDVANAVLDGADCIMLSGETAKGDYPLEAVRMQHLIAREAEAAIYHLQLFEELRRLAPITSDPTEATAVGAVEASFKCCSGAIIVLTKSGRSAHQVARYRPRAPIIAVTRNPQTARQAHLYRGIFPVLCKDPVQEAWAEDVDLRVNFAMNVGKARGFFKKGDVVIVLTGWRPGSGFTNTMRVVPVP
Details: not given
The method, then:
• PKM2 stock enzyme solution was diluted in Reaction Buffer • 2 μL of compound was added into each well first, and then 180 μL of the Reaction Mix was added. • Reaction mixture with compound (without ADP) were incubated for 30 minutes at 4° C. • Plates were re-equilibrated to room temperature prior to adding 20 μL ADP to initiate the reaction. • Reaction progress was measured as changes in absorbance at 340 nm wavelength at room temperature (25° C.) Reaction Mix: PKM2 (50 ng/well), ADP (0.7 mM), PEP (0.15 mM), NADH (180 μM), LDH (2 units) in Reaction Buffer Reaction Buffer: 100 mM KCl, 50 mM Tris pH 7.5, 5 mM MgCl2, 1 mM DTT, 0.03% BSA.
Certain compounds of Formula I were tested in the above-described assay. A compound described herein may be tested for its ability to activate PKM2. The activation activity of these compounds is represented as an AC50 in Table 2 and throughout the application. […] “B” refers to an activator of PKM2 with an EC50 between 100 nM and 1 μM. “C” refers to an activator of PKM2 with an EC50 between 1 μM and 10 μM. “D” refers to an activator of PKM2 with an EC50 greater than 10 μM. “NA” refers to data that is not available.
As a reminder, the AC50 is the concentration at which the activity in the assay is half-maximal. As for `O=C(Cc1ccccc1)OC1CN(C(=O)c2ccc(NS(=O)(=O)c3cccc4cccnc34)cc2)C1` [Compound 123, 1-(4-(Quinoline-8-sulfonamido)benzoyl)azetidin-3-yl 2-phenylacetate], the AC50 was in the range of 100 to 1000 nM.

Still in this assay, the particulars now being: activation of PKM2; PKM2 50 ng/well, ADP 0.7 mM, PEP 0.15 mM, room temperature (25° C.); read-out: AC50.
In the case of `COc1ccccc1NC1CN(C(=O)c2ccc(NS(=O)(=O)c3cccc4cccnc34)cc2)C1` [Compound 113], the AC50 is below 100 nM. The same measure, in the same setting: for `Cc1cc(C(=O)N2CC(O)(Cc3ccccc3)C2)ccc1NS(=O)(=O)c1cccc2cccnc12` [Compound 131, N-(4-(3-benzyl-3-hydroxyazetidine-1-carbonyl)-2-methylphenyl) quinoline-8-sulfonamide] the value was below 100 nM; for `O=C(Nc1ccccn1)NC1CN(C(=O)c2ccc(NS(=O)(=O)c3cccc4cccnc34)cc2)C1` [Compound 160, N-(4-(3-(3-(Pyridin-2-yl)ureido)azetidine-1-carbonyl)phenyl)quinoline-8-sulfonamide], 100 to 1000 nM. As for `COc1cc(NS(=O)(=O)c2cccc3cccnc23)ccc1C(=O)N1CC(O)(c2ccccc2)C1` [Compound 138], the concentration at half-maximal activity (AC50) was below 100 nM. As for `COc1ccccc1N(C)C1CN(C(=O)c2ccc(NS(=O)(=O)c3cccc4cccnc34)cc2)C1` [Compound 117], the AC50 lay in the range of 100 to 1000 nM. Same read-out and setting: for `O=C(c1ccc(NS(=O)(=O)c2cccc3cccnc23)cc1)N1CC(O)(c2ccccc2)C1` [Compound 136] the value was 100 to 1000 nM. As to `C=CCNC(=O)NC1CN(C(=O)c2ccc(NS(=O)(=O)c3cccc4cccnc34)c(OC)c2)C1` [Compound 140, N-(4-(3-(3-Allylureido)azetidine-1-carbonyl)-2-methoxyphenyl)quinoline-8-sulfonamide], the AC50 lay in the range of 1000 to 10000 nM. Regarding `COc1cc(NS(=O)(=O)c2cccc3cccnc23)ccc1C(=O)N1CC(O)(Cc2ccccc2)C1` [Compound 130, N-(4-(3-benzyl-3-hydroxyazetidine-1-carbonyl)-3-methoxyphenyl)quinoline-8-sulfonamide], the AC50 is below 100 nM.

On to `COc1cc(NS(=O)(=O)c2cccc3cccnc23)ccc1C(=O)N1CC(C)(O)C1` [Compound 127], for which the AC50 was in the range of 1000 to 10000 nM. As to `COc1ccccc1OC1CN(C(=O)c2ccc(NS(=O)(=O)c3cccc4cccnc34)cc2OC)C1` [Compound 150], the AC50 is below 100 nM. In the case of `COc1ccccc1OC1CN(C(=O)c2ccc(NS(=O)(=O)c3cccc4cccnc34)cc2)C1` [Compound 129], the AC50 lay in the range of 100 to 1000 nM.

`Cc1cc(C(=O)N2CC(C)(O)C2)ccc1NS(=O)(=O)c1cccc2cccnc12` [Compound 144]: the AC50 was in the range of 1000 to 10000 nM. As for `CC(C)NC(=O)OC1CN(C(=O)c2ccc(NS(=O)(=O)c3cccc4cccnc34)cc2)C1` [Compound 135, 1-(4-(Quinoline-8-sulfonamido)benzoyl)azetidin-3-yl isopropylcarbamate], the AC50 was in the range of 1000 to 10000 nM. Same read-out and setting: under `Cc1cc(C(=O)N2CC(O)C2)ccc1NS(=O)(=O)c1cccc2cccnc12` [Compound 142] stands 1000 to 10000 nM; under `Cc1cc(C(=O)N2CC(Nc3ccccn3)C2)ccc1NS(=O)(=O)c1cccc2cccnc12` [Compound 151], below 100 nM. Still for that read-out and setting: under `Cc1cc(C(=O)N2CC(NC(=O)NC(C)C)C2)ccc1NS(=O)(=O)c1cccc2cccnc12` [Compound 164] stands 100 to 1000 nM; under `O=C(Nc1ccccn1)OC1CN(C(=O)c2ccc(NS(=O)(=O)c3cccc4cccnc34)cc2)C1` [Compound 161, 1-(4-(Quinoline-8-sulfonamido)benzoyl)azetidin-3-ylpyridin-2-ylcarbamate], 1000 to 10000 nM; under `O=C(c1ccc(NS(=O)(=O)c2cccc3cccnc23)cc1)N1CC(O)C1` [Compound 141], above 10000 nM. In the case of `O=C(c1ccc(NS(=O)(=O)c2cccc3cccnc23)cc1)N1CC(OCc2ccccc2)C1` [Compound 108, N-(4-(3-(benzyloxy)azetidine-1-carbonyl)phenyl)quinoline-8-sulfonamide], the AC50 was 100 to 1000 nM. Consider `COc1ccccc1NC1CN(C(=O)c2ccc(S(=O)(=O)Nc3cccc4cccnc34)cc2)C1` [Compound 116], for which the half-maximal activity concentration (AC50) is above 10000 nM. On to `CN(c1ccccc1)C1CN(C(=O)c2ccc(NS(=O)(=O)c3cccc4cccnc34)cc2)C1` [Compound 122], for which the AC50 was below 100 nM. In the case of `Cc1cc(C(=O)N2CC(OC(=O)NC(C)C)C2)ccc1NS(=O)(=O)c1cccc2cccnc12` [Compound 132, 1-(3-Methyl-4-(quinoline-8-sulfonamido)benzoyl)azetidin-3-yl isopropylcarbamate], the AC50 lay in the range of 100 to 1000 nM. With `CN(Cc1ccccc1)C1CN(C(=O)c2ccc(NS(=O)(=O)c3cccc4cccnc34)cc2)C1` [Compound 146], the AC50 is 100 to 1000 nM.

As to `COc1ncccc1NC1CN(C(=O)c2ccc(NS(=O)(=O)c3cccc4cccnc34)c(C)c2)C1` [Compound 148], the AC50 was in the range of 100 to 1000 nM. As to `COc1ccccc1OC1CN(C(=O)c2ccc(NS(=O)(=O)c3cccc4cccnc34)c(C)c2)C1` [Compound 159], the AC50 was below 100 nM. The same measure, in the same setting: for `COc1ccncc1NC1CN(C(=O)c2ccc(NS(=O)(=O)c3cccc4cccnc34)c(C)c2)C1` [Compound 153] the value was 100 to 1000 nM; for `CC(C)NC(=O)OC1CN(C(=O)c2ccc(NS(=O)(=O)c3cccc4cccnc34)c(F)c2)C1` [Compound 134, 1-(3-Fluoro-4-(quinoline-8-sulfonamido)benzoyl)azetidin-3-yl isopropylcarbamate], 1000 to 10000 nM.

On to `COc1cc(C(=O)N2CC(Oc3ccccc3OC)C2)ccc1NS(=O)(=O)c1cccc2cccnc12` [Compound 158], for which the AC50 is below 100 nM. For the compound `Cc1cc(C(=O)N2CC(OCc3ccccc3)C2)ccc1NS(=O)(=O)c1cccc2cccnc12` [Compound 120, N-(4-(3-(benzyloxy)azetidine-1-carbonyl)-2-methylphenyl)quinoline-8-sulfonamide], the AC50 fell in the range of 100 to 1000 nM. Regarding `Cc1cc(C(=O)N2CC(O)(c3ccccc3)C2)ccc1NS(=O)(=O)c1cccc2cccnc12` [Compound 137], the half-maximal activity concentration (AC50) fell in the range of 100 to 1000 nM. As for `Cc1cc(C(=O)N2CC(OC(=O)c3ccccn3)C2)ccc1NS(=O)(=O)c1cccc2cccnc12` [Compound 110, 1-(3-Methyl-4-(quinoline-8-sulfonamido)benzoyl)azetidin-3-yl picolinate], the half-maximal activity concentration (AC50) is 100 to 1000 nM. Regarding `COc1cc(NS(=O)(=O)c2cccc3cccnc23)ccc1C(=O)N1CC(OC(=O)Nc2ccccn2)C1` [Compound 157, 1-(2-Methoxy-4-(quinoline-8-sulfonamido)benzoyl)azetidin-3-yl pyridin-2-ylcarbamate], the AC50 is 100 to 1000 nM. As to `O=C(c1ccc(NS(=O)(=O)c2cccc3cccnc23)cc1)N1CC(O)(Cc2ccccc2)C1` [Compound 101, N-(4-(3-benzyl-3-hydroxyazetidine-1-carbonyl)phenyl)quinoline-8-sulfonamide], the AC50 was below 100 nM. As to `O=C(NC1CN(C(=O)c2ccc(NS(=O)(=O)c3cccc4cccnc34)cc2)C1)c1ccccn1` [Compound 111, N-(1-(4-(Quinoline-8-sulfonamido)benzoyl)azetidin-3-yl)picolinamide], the AC50 lay within 1000 to 10000 nM. Turning to `COc1ccccc1NC1CN(C(=O)c2ccc(NS(=O)(=O)c3cccc4cccnc34)c(C)c2)C1` [Compound 114], the AC50 is below 100 nM.

In the case of `CC1(O)CN(C(=O)c2ccc(NS(=O)(=O)c3cccc4cccnc34)cc2)C1` [Compound 126], the AC50 is above 10000 nM. On to `COc1cc(NS(=O)(=O)c2cccc3cccnc23)ccc1C(=O)N1CC(OC(=O)NC(C)C)C1` [Compound 133, 1-(2-Methoxy-4-(quinoline-8-sulfonamido)benzoyl)azetidin-3-yl isopropylcarbamate], for which the AC50 was in the range of 100 to 1000 nM. In the case of `O=C(c1ccc(NS(=O)(=O)c2cccc3cccnc23)c(F)c1)N1CC(Nc2ccccc2)C1` [Compound 118], the AC50 fell in the range of 100 to 1000 nM. `O=C(c1ccc(NS(=O)(=O)c2cccc3cccnc23)c(F)c1)N1CC(Oc2ccccc2)C1` [Compound 107]: the concentration at half-maximal activity (AC50) was 100 to 1000 nM. `O=C(OC1CN(C(=O)c2ccc(NS(=O)(=O)c3cccc4cccnc34)cc2)C1)c1ccccn1` [Compound 102, 1-(4-(Quinoline-8-sulfonamido)benzoyl)azetidin-3-yl picolinate]: the AC50 fell in the range of 1000 to 10000 nM.

As to `Cc1cc(C(=O)N2CC(Nc3ccccc3)C2)ccc1NS(=O)(=O)c1cccc2cccnc12` [Compound 145], the AC50 is below 100 nM. For `COc1ccccc1NC1CN(C(=O)c2ccc(NS(=O)(=O)c3cccc4cccnc34)c(F)c2)C1` [Compound 115], the AC50 is 100 to 1000 nM. For the compound `COc1ccccc1OC1CN(C(=O)c2ccc(NS(=O)(=O)c3cccc4cccnc34)c(F)c2)C1` [Compound 154], the AC50 was in the range of 100 to 1000 nM. Regarding `Cc1cc(C(=O)N2CC(NC(=O)c3ccccn3)C2)ccc1NS(=O)(=O)c1cccc2cccnc12` [Compound 103, N-(1-(3-Methyl-4-(quinoline-8-sulfonamido)benzoyl)azetidin-3-yl)picolinamide], the AC50 lay in the range of 100 to 1000 nM.

With `O=C(c1ccc(NS(=O)(=O)c2cccc3cccnc23)cc1)N1CC(Nc2ccccc2)C1` [Compound 112], the concentration at half-maximal activity (AC50) was below 100 nM. Turning to `COc1cc(NS(=O)(=O)c2cccc3cccnc23)ccc1C(=O)N1CC(O)C1` [Compound 143], the concentration at half-maximal activity (AC50) is above 10000 nM. Still for that read-out and setting: under `COc1cccnc1NC1CN(C(=O)c2ccc(NS(=O)(=O)c3cccc4cccnc34)c(C)c2)C1` [Compound 149] stands below 100 nM.
